Where two headings read alike, the source gives them in different places.
Columns and labels:
HeLa cells = assay: Proliferation assay HeLa; type: cell-based, human; conditions: 4 days, crystal violet, read-out: Inhibition of HeLa cell proliferation IC50
Protocol: (§1) Cultivated tumour cells (HeLa, human cervical tumour cells, ATCC CCL-2; NCI-H460, human non-small cell lung carcinoma cells, ATCC HTB-177; A2780, human ovarian carcinoma cells, ECACC #93112519; DU 145, hormone-independent human prostate carcinoma cells, ATCC HTB-81; HeLa-MaTu-ADR, multidrug-resistant human cervical carcinoma cells, EPO-GmbH Berlin; Caco-2, human colorectal carcinoma cells, ATCC HTB-37; B16F10, mouse melanoma cells, ATCC CRL-6475) were plated at a density of 5,000 cells/well (DU145, HeLa-MaTu-ADR), 3,000 cells/well (NCI-H460, HeLa), 2,500 cells/well (A2780), 1,500 cells/well (Caco-2), or 1,000 cells/well (B16F10) in a 96-well multititer plate in 200 μL of their respective growth medium supplemented 10% fetal calf serum. After 24 hours, the cells of one plate (zero-point plate) were stained with crystal violet (see below), while the medium of the other plates was replaced by fresh culture medium (200 μl), to which the test substances were added in various concentrations (0 μM, as well as in the range of 0.001-10 μM). The cells were incubated for 4 days in the presence of test substances. Cell proliferation was determined by staining the cells with crystal violet: the cells were fixed by adding 20 μl/measuring point of an 11% glutaric aldehyde solution for 15 minutes at room temperature. After three washing cycles of the fixed cells with water, the plates were dried at room temperature. The cells were stained by adding 100 μl/measuring point of a 0.1% crystal violet solution (pH 3.0). After three washing cycles of the stained cells with water, the plates were dried at room temperature. The dye was dissolved by adding 100 μl/measuring point of a 10% acetic acid solution. The extinction was determined by photometry at a wavelength of 595 nm. The change of cell number, in percent, was calculated by normalization of the measured values to the extinction values of the zero-point plate (=0%) and the extinction of the untreated (0 μm) cells (=100%). The IC50 values (inhibitory concentration at 50% of maximal effect) were determined by means of a 4 parameter fit. Non-adherent MOLM-13 human acute myeloid leukemia cells (DSMZ ACC 554) were seeded at a density of 5,000 cells/well in a 96-well multititer plate in 100 μL of growth medium supplemented 10% fetal calf serum. After 24 hours, cell viability of one plate (zero-point plate) was determined with the Cell Titre-Glo Luminescent Cell Viability Assay (Promega), while 50 μL of test compound containing medium was added to the wells of the other plates (final concentrations in the range of 0.001-1 μM and DMSO controls). Cell viability was assessed after 72-hour exposure with the Cell Titre-Glo Luminescent Cell Viability Assay (Promega). IC50 values (inhibitory concentration at 50% of maximal effect) were determined by means of a 4 parameter fit on measurement data which were normalized to vehicle (DMSO) treated cells (=100%) and measurement readings taken immediately before compound exposure (=0%).

CDK9/CycT1 = target: T1, CDK9/CycT1 (Homo sapiens, UniProt P50750); assay: CDK9/CycT1 kinase assay (TR-FRET, Method 1a); type: biochemical; conditions: for IC50: Method 1a, 10 μM ATP; for Selectivity CDK9 over CDK2: IC50 (CDK2)/IC50 (CDK9): Methods 1a and 2a, minimal values where CDK9 IC50 is at the assay limit
T1 construct: Recombinant full-length His-tagged human CDK9 and CycT1; His; purchased Invitrogen PV4131; host or cells: insect cells
Excerpt: 1a. CDK9/CycT1 Kinase Assay:
CDK9/CycT1-inhibitory activity of compounds of the present invention was quantified employing the CDK9/CycT1 TR-FRET assay as described in the following paragraphs:
Recombinant full-length His-tagged human CDK9 and CycT1, expressed in insect cells and purified by Ni-NTA affinity chromatography, were purchased from Invitrogen (Cat. No PV4131). As substrate for the kinase reaction biotinylated peptide biotin-Ttds-YISPLKSPYKISEG (C-terminus in amid form) was used which can be purchased e.g. from the company JERINI Peptide Technologies (Berlin, Germany). For the assay 50 nl of a 100 fold concentrated solution of the test compound in DMSO was pipetted into a black low volume 384 well microtiter plate (Greiner Bio-One, Frickenhausen, Germany), 2 μl of a solution of CDK9/CycT1 in aqueous assay buffer [50 mM Tris/HCl pH 8.0, 10 mM MgCl2, 1.0 mM dithiothreitol, 0.1 mM sodium ortho-vanadate, 0.01% (v/v) Nonidet-P40 (Sigma)] were added and the mixture was incubated for 15 min at 22° C. to allow pre-binding of the test compounds to the enzyme before the start of the kinase reaction. […] The concentration of CDK9/CycT1 was adjusted depending of the activity of the enzyme lot and was chosen appropriate to have the assay in the linear range, typical concentrations were in the range of 1 μg/mL. The reaction was stopped by the addition of 5 μl of a solution of TR-FRET detection reagents (0.2 μM streptavidine-XL665 [Cisbio Bioassays, Codolet, France] and 1 nM anti-RB(pSer807/pSer811)-antibody from BD Pharmingen [#558389] and 1.2 nM LANCE EU-W1024 labeled anti-mouse IgG antibody [Perkin-Elmer, product no. AD0077]) in an aqueous EDTA-solution (100 mM EDTA, 0.2% (w/v) bovine serum albumin in 100 mM HEPES pH 7.5).
The resulting mixture was incubated 1 h at 22° C. to allow the formation of complex between the phosphorylated biotinylated peptide and the detection reagents. Subsequently the amount of phosphorylated substrate was evaluated by measurement of the resonance energy transfer from the Eu-chelate to the streptavidine-XL. Therefore, the fluorescence emissions at 620 nm and 665 nm after excitation at 350 nm was measured in a HTRF reader, e.g. a Rubystar (BMG Labtechnologies, Offenburg, Germany) or a Viewlux (Perkin-Elmer). The ratio of the emissions at 665 nm and at […] was taken as the measure for the amount of phosphorylated substrate. The data were normalised (enzyme reaction without inhibitor=0% inhibition, all other assay components but no enzyme=100% inhibition).

NCI-H460 cells = assay: Proliferation assay NCI-H460; type: cell-based, human; conditions: 4 days, crystal violet, read-out: Inhibition of NCI-H460 cell proliferation IC50
Protocol: as §1

T1 sequence (P50750 whole entry): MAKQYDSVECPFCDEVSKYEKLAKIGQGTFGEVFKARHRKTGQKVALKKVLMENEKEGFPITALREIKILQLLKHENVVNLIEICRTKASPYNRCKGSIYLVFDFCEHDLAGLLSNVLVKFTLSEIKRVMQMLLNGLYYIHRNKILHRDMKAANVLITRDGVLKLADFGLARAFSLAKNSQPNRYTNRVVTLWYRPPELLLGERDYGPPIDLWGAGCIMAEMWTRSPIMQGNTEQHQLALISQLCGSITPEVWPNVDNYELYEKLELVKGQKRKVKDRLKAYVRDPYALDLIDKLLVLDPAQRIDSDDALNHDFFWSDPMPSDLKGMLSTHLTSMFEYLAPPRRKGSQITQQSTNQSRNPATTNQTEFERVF
T1 sequence (O60563 whole entry partner): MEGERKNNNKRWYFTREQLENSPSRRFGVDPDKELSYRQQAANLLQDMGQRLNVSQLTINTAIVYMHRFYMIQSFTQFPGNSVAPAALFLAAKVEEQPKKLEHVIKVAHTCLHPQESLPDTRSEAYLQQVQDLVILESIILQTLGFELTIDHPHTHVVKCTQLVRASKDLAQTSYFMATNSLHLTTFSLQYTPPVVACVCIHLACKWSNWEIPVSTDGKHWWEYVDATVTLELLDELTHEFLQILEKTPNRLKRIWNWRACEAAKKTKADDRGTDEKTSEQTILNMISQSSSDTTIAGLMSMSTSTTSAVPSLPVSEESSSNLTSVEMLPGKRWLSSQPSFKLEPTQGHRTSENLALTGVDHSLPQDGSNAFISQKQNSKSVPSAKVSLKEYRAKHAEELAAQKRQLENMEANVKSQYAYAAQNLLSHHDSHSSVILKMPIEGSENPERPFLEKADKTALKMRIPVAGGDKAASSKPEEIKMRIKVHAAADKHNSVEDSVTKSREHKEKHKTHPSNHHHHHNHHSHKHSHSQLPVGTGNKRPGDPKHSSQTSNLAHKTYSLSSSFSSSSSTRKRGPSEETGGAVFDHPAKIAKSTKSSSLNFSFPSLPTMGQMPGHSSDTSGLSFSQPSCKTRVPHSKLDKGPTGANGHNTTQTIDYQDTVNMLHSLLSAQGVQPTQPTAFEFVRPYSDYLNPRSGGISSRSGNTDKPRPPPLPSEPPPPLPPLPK

Row | IC50 (CDK9/CycT1) [nM] | Selectivity CDK9 over CDK2: IC50 (CDK2)/IC50 (CDK9) (CDK9/CycT1) | IC50 (HeLa cells; Homo sapiens, HeLa, 96 h) [nM] | IC50 (NCI-H460 cells; Homo sapiens, NCI-H460, 96 h) [nM] | Molecule | IC50 (HeLa cells) [nM] | IC50 (NCI-H460 cells) [nM]
1 | 6.8 | 6.0 | 86 | 39 | CSCc1cc2nc(c1)OCCCOc1cc(F)ccc1-c1cc(ncc1F)N2 [Example 3, 15,19-Difluoro-8-[(methylsulfanyl)methyl]-3,4-dihydro-2H,11H-10,6-(azeno)-12,16-(metheno)-1,5,11,13-benzodioxadiazacyclooctadecine] |  | 
2 | 7.3 | 13.5 | 62 | 56 | CSCc1cc2cc(c1)OCCCOc1cc(F)ccc1-c1nc(ncc1F)N2 [Example 2, 15,19-Difluoro-8-[(methylsulfanyl)methyl]-3,4-dihydro-2H,11H-12,16-(azeno)-10,6-(metheno)-1,5,11,13-benzodioxadiazacyclooctadecine] |  | 

Row | Molecule | IC50 (CDK9/CycT1) [nM] | Selectivity CDK9 over CDK2: IC50 (CDK2)/IC50 (CDK9) (CDK9/CycT1) | IC50 (HeLa cells; Homo sapiens, HeLa, 96 h) [nM] | IC50 (NCI-H460 cells; Homo sapiens, NCI-H460, 96 h) [nM] | IC50 (HeLa cells) [nM] | IC50 (NCI-H460 cells) [nM]
3 | ({[15,19-difluoro-3,4-dihydro-2H,11H-10,6-(azeno)-12,16-(metheno)-1,5,11,13-benzodioxadiazacyclooctadecin-8-yl]methyl}sulfonyl)acetic acid [Example 27] | 2.9 | 0.8 |  |  | 1050 | 3040
